# pKi: −log10 of the molar value. The source made the active and inactive calls. No cut-off for these calls is given here. Non-standard residues stand in square brackets, D forms with d. Residues, ends and D or L forms follow the SMILES beside them. *: point of attachment. 1Nal = N[C@@H](Cc1cccc2ccccc12)C(=O)O; Cbz = O=C(OCc1ccccc1)*; NHBn = c1ccc(CN*)cc1; OBn = c1ccc(CO*)cc1; azaGly = NNC(=O)O
# How the values were obtained:
# [1] = target: T1, Papain (Carica papaya, UniProt P00784); test: In vitro inhibition of papain.
# T1 sequence (P00784 whole entry): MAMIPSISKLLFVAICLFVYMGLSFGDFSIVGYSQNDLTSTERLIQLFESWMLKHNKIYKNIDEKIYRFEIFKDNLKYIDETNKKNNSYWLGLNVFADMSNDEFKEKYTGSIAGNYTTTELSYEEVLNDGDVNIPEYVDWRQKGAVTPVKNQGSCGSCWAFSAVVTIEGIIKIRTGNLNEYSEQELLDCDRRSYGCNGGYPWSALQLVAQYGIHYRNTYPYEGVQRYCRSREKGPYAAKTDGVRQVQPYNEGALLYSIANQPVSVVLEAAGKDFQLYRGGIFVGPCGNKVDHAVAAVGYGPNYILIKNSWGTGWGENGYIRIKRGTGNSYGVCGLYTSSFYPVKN
# [2] = target: T2, Cathepsin K (Homo sapiens, UniProt P43235); test: Inhibition of Human Cathepsin K
# T2 sequence (P43235 whole entry): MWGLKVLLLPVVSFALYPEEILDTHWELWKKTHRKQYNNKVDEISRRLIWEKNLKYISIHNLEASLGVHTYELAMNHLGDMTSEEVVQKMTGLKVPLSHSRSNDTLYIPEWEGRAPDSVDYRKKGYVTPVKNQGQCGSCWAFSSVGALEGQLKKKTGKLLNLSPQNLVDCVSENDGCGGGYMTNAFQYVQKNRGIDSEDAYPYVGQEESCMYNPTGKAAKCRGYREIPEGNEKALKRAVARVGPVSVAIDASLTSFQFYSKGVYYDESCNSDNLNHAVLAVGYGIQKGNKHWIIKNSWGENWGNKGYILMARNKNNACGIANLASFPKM
# [3] = target: T3, Papain (Carica papaya) (UniProt P00784); test: Evaluated for inhibitory activity against papain; No inhibition
# T3 sequence (whole entry): T1 sequence (P00784 whole entry)
# [4] = target: Cathepsin B (Homo sapiens, UniProt P07858); test: Inhibition of Human Cathepsin B
compound,measurement,setting,value
COC(=O)[C@@H](NC(=O)NNC(=O)[C@H](Cc1ccccc1)NC(C)=O)C(C)C,pKi,[1],7.21
CCCCOC(=O)[C@@H](NC(=O)NNC(=O)[C@H](Cc1ccccc1)NC(C)=O)C(C)C,pKi,[1],7.23
CC(=O)N[C@@H](Cc1ccccc1)C(=O)NNC(=O)N[C@H](C(=O)NCc1ccccc1)C(C)C,pKi,[1],7.52
CCCCNC(=O)[C@@H](NC(=O)NNC(=O)[C@H](Cc1ccccc1)NC(C)=O)C(C)C,pKi,[1],7.55
CC(=O)N[C@@H](Cc1ccccc1)C(=O)NNC(=O)N[C@H](C(=O)OCc1ccccc1)C(C)C,pKi,[1],7.68
CCOC(=O)[C@@H](NC(=O)NNC(=O)[C@H](Cc1ccccc1)NC(C)=O)C(C)C,pKi,[1],7.70
CNC(=O)[C@@H](NC(=O)NNC(=O)[C@H](Cc1ccccc1)NC(C)=O)C(C)C,pKi,[1],7.49
CCOC(=O)NNC(=O)[C@@H](NC(=O)[C@H](CC(C)C)NC(=O)OC(C)(C)C)C(C)C,pKi,[1],7.62
same,pKi,[2],7.21
CC(=O)N[C@@H](Cc1ccccc1)C(=O)NNC(=O)N[C@H](C(=O)O)C(C)C,NA,[3],inactive
CC(C)C(NC(=O)NNC(=O)OC(C)(C)C)C(=O)OCc1ccccc1 (stereo not given),NI,[3],inactive
CC[C@H](C)[C@H](NC(=O)NNC(=O)[C@H](Cc1ccccc1)NC(=O)[C@H](CC(C)C)NC(=O)[C@H](C)NC(=O)OCc1ccccc1)C(=O)N[C@H](C(=O)OC)C(C)C (Cbz-ALF[azaGly]IV-OMe),pKi,[1],9.92
same,pKi,[4],9.89
same,pKi,[2],9.74
CC[C@H](C)[C@H](NC(=O)NNC(=O)[C@H](Cc1cnc[nH]1)NC(=O)[C@H](CC(C)C)NC(=O)[C@H](C)NC(=O)OCc1ccccc1)C(=O)N[C@H](C(=O)OC)C(C)C (Cbz-ALH[azaGly]IV-OMe),pKi,[1],9.24
same,pKi,[4],10.52
same,pKi,[2],9.07
CC[C@H](C)[C@H](NC(=O)NNC(=O)[C@@H](NC(=O)[C@H](CC(C)C)NC(=O)[C@H](C)NC(=O)OCc1ccccc1)[C@@H](C)CC)C(=O)N[C@H](C(=O)NCc1ccccc1)C(C)C (Cbz-ALI[azaGly]IV-NHBn),pKi,[1],8.87
same,pKi,[4],9.60
same,pKi,[2],8.61
CC[C@H](C)[C@H](NC(=O)NNC(=O)[C@@H](NC(=O)[C@H](CC(C)C)NC(=O)[C@H](C)NC(=O)OCc1ccccc1)[C@@H](C)CC)C(=O)N[C@H](C(=O)OC)C(C)C (Cbz-ALI[azaGly]IV-OMe),pKi,[1],9.02
same,pKi,[4],9.52
same,pKi,[2],8.67
CC[C@H](C)[C@H](NC(=O)NNC(=O)[C@H](Cc1ccc(OC)cc1)NC(=O)[C@H](CC(C)C)NC(=O)[C@H](C)NC(=O)OCc1ccccc1)C(=O)N[C@H](C(=O)OC)C(C)C (Cbz-ALY(Me)[azaGly]IV-OMe),pKi,[1],9.55
same,pKi,[4],8.85
same,pKi,[2],8.07
CC[C@H](C)[C@H](NC(=O)NNC(=O)[C@H](Cc1cccc2ccccc12)NC(=O)[C@H](CC(C)C)NC(=O)[C@H](C)NC(=O)OCc1ccccc1)C(=O)N[C@H](C(=O)OC)C(C)C (Cbz-AL[1Nal][azaGly]IV-OMe),pKi,[1],10.00
same,pKi,[4],8.80
same,pKi,[2],8.24
CC(C)C[C@H](NC(=O)OCc1ccccc1)C(=O)N[C@@H](Cc1ccccc1)C(=O)NNC(=O)N[C@H](C(=O)OCc1ccccc1)C(C)C (Cbz-LF[azaGly]V-OBn),NI,[3],inactive
CC(C)C[C@H](NC(=O)OCc1ccccc1)C(=O)N[C@H](C(=O)NNC(=O)N[C@H](C(=O)OCc1ccccc1)C(C)C)C(C)C (Cbz-LV[azaGly]V-OBn),pKi,[1],8.17
same,pKi,[4],7.40
same,pKi,[2],7.47
CC(C)C[C@H](NC(=O)[C@H](CCCN=C(N)N)NC(=O)OCc1ccccc1)C(=O)N[C@@H](Cc1ccccc1)C(=O)NNC(=O)N[C@H](C(=O)OCc1ccccc1)C(C)C (Cbz-RLF[azaGly]V-OBn),NI,[3],inactive
CC[C@H](C)[C@H](NC(=O)NNC(=O)[C@@H](NC(=O)[C@H](CC(C)C)NC(=O)[C@H](CCCN=C(N)N)NC(=O)OCc1ccccc1)C(C)C)C(=O)N[C@H](C(=O)OC)C(C)C (Cbz-RLV[azaGly]IV-OMe),pKi,[1],9.11
same,pKi,[4],10.06
same,pKi,[2],7.68
CC(C)C[C@H](N)C(=O)N[C@H](C(=O)NNC(=O)N[C@H](C(=O)OCc1ccccc1)C(C)C)C(C)C (HELM PEPTIDE1{L.V.[O=C(NN[*:1])[*:2]].V.[c1ccc(CO[*:1])cc1]}$$$$V2.0),NI,[3],inactive
CC(C)C[C@H](NC(=O)[C@H](CCCNC(=N)N)NC(=O)OCc1ccccc1)C(=O)N[C@H](C(=O)NNC(=O)N[C@@H](C)C(=O)NCC(N)=O)C(C)C (HELM PEPTIDE1{[O=C(OCc1ccccc1)[*:2]].R.L.V.[O=C(NN[*:1])[*:2]].A.G.[am]}$$$$V2.0),pKi,[1],9.11
same,pKi,[4],8.14
same,pKi,[2],8.17
CC[C@H](C)[C@H](NC(=O)NNC(=O)[C@@H](NC(=O)[C@H](CC(C)C)NC(=O)[C@H](CCCN=C(N)N)NC(=O)OCc1ccccc1)C(C)C)C(=O)N[C@H](C(=O)N[C@@H](Cc1c[nH]c2ccccc12)C(N)=O)C(C)C (HELM PEPTIDE1{[O=C(OCc1ccccc1)[*:2]].R.L.V.[O=C(NN[*:1])[*:2]].I.V.W.[am]}$$$$V2.0),pKi,[1],7.77
same,pKi,[4],7.89
same,pKi,[2],7.14
CC(C)C[C@H](NC(=O)[C@H](CCCNC(=N)N)NC(=O)OCc1ccccc1)C(=O)N[C@H](C(=O)NNC(=O)N[C@H](C(=O)N[C@@H](C)C(N)=O)C(C)C)C(C)C (HELM PEPTIDE1{[O=C(OCc1ccccc1)[*:2]].R.L.V.[O=C(NN[*:1])[*:2]].V.A.[am]}$$$$V2.0),pKi,[1],9.25
same,pKi,[4],9.92
same,pKi,[2],8.67
CC(C)C[C@H](NC(=O)[C@H](CCCNC(=N)N)NC(=O)OCc1ccccc1)C(=O)N[C@H](C(=O)NNC(=O)N[C@@H](Cc1c[nH]c2ccccc12)C(=O)N[C@H](C(=O)N[C@@H](C)C(N)=O)C(C)C)C(C)C (HELM PEPTIDE1{[O=C(OCc1ccccc1)[*:2]].R.L.V.[O=C(NN[*:1])[*:2]].W.V.A.[am]}$$$$V2.0),pKi,[1],7.00
same,pKi,[4],7.37
same,pKi,[2],7.00
